{"source": "patent US7351837B1", "about": "“Thermally cleavable surfactants without deprotonation” (Sandia Corporation, priority 2004, dated 2008)", "format_in_all_cases": "physicochemical", "key": {"[1]": {"experiment": "critical micelle concentration by dynamic surface tension (maximum bubble pressure method)", "settings": "aqueous solution", "method": "The dynamic surface tension measurements were conducted using a SENSADYNE® QC3000 dynamic surface tensiometer (available from the SENSADYNE® Instruments Division of the Chem-Dyne Research Corporation, Mesa, Ariz.) that utilizes the maximum bubble pressure method. The fundamental operating principles and theoretical considerations of this method are explained in detail elsewhere, and a brief summary only is given here. Two glass probes with different orifice diameters (0.5 and 4.0 mm) were submerged in an aqueous surfactant solution and nitrogen was bubbled through the samples. Dry nitrogen was used as the bubble source gas and was delivered to the instrument at 50 psi. The instrument was operated at a bubble frequency of 0.5 Hz to approximate equilibrium surface tension values for each sample. The differential pressure signal generated by bubble formation is related to the interfacial surface tension of the liquid and gas. Surface tension calibration was carried out by measuring the surface tension of deionized water and ethanol and comparing to known literature values. Solution temperature was monitored with a calibrated thermistor (± 0.1° C.) attached to the orifice probes. Instrumental calibration was conducted for every change in experimental conditions and after prolonged periods of instrumental quiescence. All experiments were conducted at 25.0±0.2° C. unless otherwise noted. […]"}, "[2]": {"experiment": "retro-DA degradation via surface tension", "settings": "10 mM aqueous solution", "method": "The surfactants of the invention undergo the retro-DA reaction after exposure to elevated temperatures. […] Data were recorded for all experiments via a computer interface using the […]3000 version 5.3 software. […] Additional measurements to determine the effect of temperature on the rates of surfactant dissociation and loss of surface active properties were conducted on 10 mM solutions of surfactant 3. The data shown in FIG. 3 clearly indicate that the temperature at which the samples are elevated to has a dramatic impact on the rate at which the surface active properties are lost in these solutions. […] At the lowest temperature monitored, 55° C., it takes over 30 hours of exposure to eliminate surface activity. The data has been fit with a logistic 4-parameter algorithm using SIGMAPLOT® (available from Systat Software, Inc., Richmond, Calif.). […] The effective control of the surface active properties of the system is envisioned to be accomplished by manipulating one or any combination of these parameters. It should also be noted that all of the surface tension measurements of the cleaved samples were taken after the samples had cooled to ambient conditions, and are convincing evidence that the dissociation accompanying the retro DA is irreversible in micelles."}, "[3]": {"experiment": "retro-DA degradation via 1H NMR", "settings": "65° C., 10 mM aqueous sample, isothermal", "text": "Percent degradation was tracked by recording the decrease in the integral value for the bridge head proton of the DA adduct located at 5.02 ppm. […] It is important to note that the percent degradation of surfactant 5 over various temperatures is not necessarily linear. This is a result of the Keq for the reversible DA reaction with DA adduct formation/stability dominating at lower temperatures."}}, "data": [{"smiles": "CCCCCCCCCCCCC12C=CC(O1)C1C(=O)N(c3ccc(S(=O)(=O)[O-])cc3)C(=O)C12.[Na+]", "note": "(stereo not drawn) [surfactant 3, exo-4-Dodecyl-7-oxabicyclo[2.2.1]hept-5-ene-2,3-dicarboxy-N-(4-sodiumsulfophenyl)imide]", "values": [{"measurement": "cmc by dynamic surface tension measurements", "setting": "[1]; 25.0±0.2° C., bubble frequency 0.5 Hz", "value": 5.1, "unit": "mM"}, {"measurement": "second inflection point of surface tension vs concentration (micelles begin to form)", "setting": "[1]; FIG. 2", "value": "~5", "unit": "mM"}, {"measurement": "time of exposure to eliminate surface activity", "setting": "[2]; 55° C.", "value": "over 30 hours"}, {"measurement": "time of exposure to loss of all surface activity (surface tension is that of water)", "setting": "[2]; 95° C.", "value": "≤ 1", "unit": "h"}, {"measurement": "time of heating to complete degradation (1H NMR)", "setting": "[3]", "value": "about 10 hours"}]}]}
